# Test results published in patent publication US10004702B2, “Linear guanidine derivatives, methods of preparation and uses thereof” (LEAD DISCOVERY SIENA S.R.L., priority 2014, dated 2018).
# Assay: Parallel Artificial Membrane Permeability Assay (PAMPA)
# Format: in vitro ADME
# Conditions: pH 7.4, 5 h at room temperature, read-out: apparent permeability (Papp)
# Experimental: Donor solution (0.5 mM) was prepared by diluting 1 mM dimethylsulfoxide (DMSO) compound stock solution using tris-HCl buffer (50 mM) at pH 7.4. Filters were coated with 5 μL of a 1% (w/v) dodecane solution of phosphatidylcholine. Donor solution (150 μL) was added to each well of the filter plate. To each well of the acceptor plate were added 300 μL of solution (50% DMSO in phosphate buffer). Compound 28 was tested in three different plates on different days. The sandwich was incubated for 5 h at room temperature under gentle shaking. After the incubation time, the plates were separated, and samples were taken from both receiver and donor sides and analyzed using LC with UV detection at 210 and 254 nm. LC analysis were performed with a Perkin-Elmer (series 200) instrument equipped with an UV detector (Perkin-Elmer […], UV/vis Detector). Chromatographic separation were conducted using a Polaris C18 column (150-4.6 mm, 5 μm particle size) at a flow rate of 0.8 mL min-1 with a mobile phase composed of 50% CH3CN/50% H2O-formic acid 0.1%. Permeability (Papp) was calculated according to equation 1, obtained from Sugano [12] and Wohnsland [13] equation with some modification to obtain values in cm/s. […]
smiles,measurement,value
"N=C(N)NCCCCCCCCN(CCCCCCCCNC(=N)NCC1CC1)C(=O)N(CCCCCCCCNC(=N)N)CCCCCCCCNC(=N)NCC1CC1 [Compound 28, 1,3-bis(8-(3-(cyclopropylmethyl)guanidino)octyl)-1,3-bis(8-guanidinooctyl)urea]","Papp at 5 h, 0.5 mM",1.6 ×10⁻⁶ cm/s
